{"source": "paper PMC10969742", "about": "“A Phase I Study of the Oral Dual-Acting Pan-PI3K/mTOR Inhibitor Bimiralisib in Patients with Advanced Solid Tumors” (Cancers, 2024)", "experiment": "Plasma pharmacokinetics of bimiralisib, non-compartmental analysis (LC-MS)", "assay_type": "in vivo, human", "settings": "for AUC(0-t) / Cmax / Tmax: human, plasma, oral; for Cmax: read-out: Cmax Mean (%CV); for Tmax: read-out: Tmax Median, (Range)", "method": "Blood samples were collected to enable full PK profiling of bimiralisib. The PK samples were taken pre-dose and at 0.5, 1, 2, 4, 6, 8, and 24 h post-dosing in the three schedules, with additional timepoints depending on the schedule (48 h in the continuous schedule, 12, 16, and 48 h in intermittent schedule A and 12, 16, and 72 h in intermittent schedule B). PK sampling was repeated on cycle 1 Day 8 (continuous schedule: pre-dose and 1 h post-dose; intermittent schedules A and B: pre-dose and 0.5, 1, 2, 4, 6, 8, and 24 h post-dose), on cycle 1 Day 15 (continuous schedule: pre-dose and 0.5, 1, 2, 4, 6 and 8 h post-dose; intermittent schedules A and B: pre-dose and 4 h post-dose), and on cycle 2 Day 1 (continuous dosing: pre-dose and 1 h post-dose). Samples were sent to a central laboratory for analysis using liquid-chromatography mass spectrometry. The pharmacokinetics of bimiralisib were determined by non-compartmental analysis. Area under the concentration vs. time curve (AUC) was calculated using the linear up log down trapezoidal method. Accumulation was calculated as the ratio of cycle 1 on Day 15 AUC0–8h versus cycle 1 on Day -3 AUC0–8h.", "key": {"[1]": {"settings": "80 mg, Continuous Dosing, 80 mg, Day 15, 7 patients"}, "[2]": {"settings": "80 mg, Continuous Dosing, 80 mg, Day -3, 11 patients"}, "[3]": {"settings": "80 mg, Intermittent Dose Schedule A, 80 mg, Day 8, 3 patients"}, "[4]": {"settings": "80 mg, Intermittent Dose Schedule A, 80 mg, Day -3, 4 patients"}, "[5]": {"settings": "80 mg, Intermittent Dose Schedule B, 80 mg, Day 1, 4 patients"}, "[6]": {"settings": "80 mg, Intermittent Dose Schedule B, 80 mg, Day 8, 4 patients"}, "[7]": {"settings": "100 mg, Continuous Dosing, 100 mg, Day 1, 5 patients"}, "[8]": {"settings": "100 mg, Continuous Dosing, 100 mg, Day 15, 2 patients"}, "[9]": {"settings": "100 mg, Intermittent Dose Schedule A, 100 mg, Day -3, 4 patients"}, "[10]": {"settings": "100 mg, Intermittent Dose Schedule B, 100 mg, Day 1, 7 patients"}, "[11]": {"settings": "100 mg, Intermittent Dose Schedule B, 100 mg, Day 8, 6 patients"}, "[12]": {"settings": "120 mg, Continuous Dosing, 120 mg, Day 1, 5 patients"}, "[13]": {"settings": "120 mg, Continuous Dosing, 120 mg, Day 15, 1 patient"}, "[14]": {"settings": "120 mg, Intermittent Dose Schedule A, 120 mg, Day 8, 3 patients"}}, "note": "Read-outs that look alike come from different tables or passages of the source.", "data": [{"smiles": "Nc1cc(C(F)(F)F)c(-c2nc(N3CCOCC3)nc(N3CCOCC3)n2)cn1", "note": "[bimiralisib, 5-(4,6-Dimorpholino-1,3,5-triazin-2-yl)-4-(trifluoromethyl)pyridin-2-amine]", "values": [{"measurement": "Dose proportionality of concentration-time data", "setting": "all dosing schedules, 80–200 mg", "result": "not proportional to doses"}, {"measurement": "Median half-life, calculated from accumulation", "setting": "continuous schedule, range < 6–146 h", "result": 39.5, "unit": "h"}, {"measurement": "Median accumulation ratio (cycle 1 Day 15 AUC0–8h versus Day -3 AUC0–8h)", "setting": "continuous schedule, range, <1.0–9.3", "result": 2.9}, {"measurement": "AUC(0-t)", "setting": "80 mg, Continuous Dosing, 80 mg, Day 15, 7 patients, read-out: AUC0–8 Geometric Mean (%CV)", "result": 4090, "unit": "ng·h/mL"}, {"measurement": "Cmax", "setting": "[1]", "result": 766, "unit": "ng/mL"}, {"measurement": "Tmax", "setting": "[1]", "result": 1, "unit": "h"}, {"measurement": "AUC(0-t)", "setting": "80 mg, Continuous Dosing, 80 mg, Day -3, 11 patients, read-out: AUC0–8 Geometric Mean (%CV)", "result": 1530, "unit": "ng·h/mL"}, {"measurement": "AUC(0-t)", "setting": "80 mg, Continuous Dosing, 80 mg, Day -3, 11 patients, read-out: AUC0–24 Geometric Mean (%CV)", "result": 4290, "unit": "ng·h/mL"}, {"measurement": "Cmax", "setting": "[2]", "result": 407, "unit": "ng/mL"}, {"measurement": "Tmax", "setting": "[2]", "result": 2, "unit": "h"}, {"measurement": "AUC(0-t)", "setting": "80 mg, Intermittent Dose Schedule A, 80 mg, Day 8, 3 patients, read-out: AUC0–8 Geometric Mean (%CV)", "result": 2350, "unit": "ng·h/mL"}, {"measurement": "Cmax", "setting": "[3]", "result": 614, "unit": "ng/mL"}, {"measurement": "Tmax", "setting": "[3]", "result": 1, "unit": "h"}, {"measurement": "AUC(0-t)", "setting": "80 mg, Intermittent Dose Schedule A, 80 mg, Day 8, n = 1, read-out: AUC0–24 Geometric Mean (%CV)", "result": 6740, "unit": "ng·h/mL"}, {"measurement": "AUC(0-t)", "setting": "80 mg, Intermittent Dose Schedule A, 80 mg, Day -3, 4 patients, read-out: AUC0–8 Geometric Mean (%CV)", "result": 1580, "unit": "ng·h/mL"}, {"measurement": "AUC(0-t)", "setting": "80 mg, Intermittent Dose Schedule A, 80 mg, Day -3, 4 patients, read-out: AUC0–24 Geometric Mean (%CV)", "result": 3540, "unit": "ng·h/mL"}, {"measurement": "Cmax", "setting": "[4]", "result": 410, "unit": "ng/mL"}, {"measurement": "Tmax", "setting": "[4]", "result": 1.5, "unit": "h"}, {"measurement": "AUC(0-t)", "setting": "80 mg, Intermittent Dose Schedule B, 80 mg, Day 1, 4 patients, read-out: AUC0–8 Geometric Mean (%CV)", "result": 1680, "unit": "ng·h/mL"}, {"measurement": "AUC(0-t)", "setting": "80 mg, Intermittent Dose Schedule B, 80 mg, Day 1, 4 patients, read-out: AUC0–24 Geometric Mean (%CV)", "result": 4000, "unit": "ng·h/mL"}, {"measurement": "Cmax", "setting": "[5]", "result": 341, "unit": "ng/mL"}, {"measurement": "Tmax", "setting": "[5]", "result": 3, "unit": "h"}, {"measurement": "AUC(0-t)", "setting": "80 mg, Intermittent Dose Schedule B, 80 mg, Day 8, 4 patients, read-out: AUC0–8 Geometric Mean (%CV)", "result": 2600, "unit": "ng·h/mL"}, {"measurement": "Cmax", "setting": "[6]", "result": 681, "unit": "ng/mL"}, {"measurement": "Tmax", "setting": "[6]", "result": 1.5, "unit": "h"}, {"measurement": "AUC(0-t)", "setting": "80 mg, Intermittent Dose Schedule B, 80 mg, Day 8, n = 3, read-out: AUC0–24 Geometric Mean (%CV)", "result": 6350, "unit": "ng·h/mL"}, {"measurement": "AUC(0-t)", "setting": "100 mg, Continuous Dosing, 100 mg, Day 1, 5 patients, read-out: AUC0–8 Geometric Mean (%CV)", "result": 1690, "unit": "ng·h/mL"}, {"measurement": "AUC(0-t)", "setting": "100 mg, Continuous Dosing, 100 mg, Day 1, 5 patients, read-out: AUC0–24 Geometric Mean (%CV)", "result": 4660, "unit": "ng·h/mL"}, {"measurement": "Cmax", "setting": "[7]", "result": 441, "unit": "ng/mL"}, {"measurement": "Tmax", "setting": "[7]", "result": 1.7, "unit": "h"}, {"measurement": "AUC(0-t)", "setting": "100 mg, Continuous Dosing, 100 mg, Day 15, 2 patients, read-out: AUC0–8 Geometric Mean (%CV)", "result": 5750, "unit": "ng·h/mL"}, {"measurement": "Cmax", "setting": "[8]", "result": 1110, "unit": "ng/mL"}, {"measurement": "Tmax", "setting": "[8]", "result": 2, "unit": "h"}, {"measurement": "AUC(0-t)", "setting": "100 mg, Intermittent Dose Schedule A, 100 mg, Day 8, 3 patients, read-out: AUC0–8 Geometric Mean (%CV)", "result": 3910, "unit": "ng·h/mL"}, {"measurement": "Tmax", "setting": "100 mg, Intermittent Dose Schedule A, 100 mg, Day 8, 3 patients", "result": 1, "unit": "h"}, {"measurement": "AUC(0-t)", "setting": "100 mg, Intermittent Dose Schedule A, 100 mg, Day 8, n = 2, read-out: AUC0–24 Geometric Mean (%CV)", "result": 12400, "unit": "ng·h/mL"}, {"measurement": "AUC(0-t)", "setting": "100 mg, Intermittent Dose Schedule A, 100 mg, Day -3, 4 patients, read-out: AUC0–8 Geometric Mean (%CV)", "result": 1970, "unit": "ng·h/mL"}, {"measurement": "AUC(0-t)", "setting": "100 mg, Intermittent Dose Schedule A, 100 mg, Day -3, 4 patients, read-out: AUC0–24 Geometric Mean (%CV)", "result": 4170, "unit": "ng·h/mL"}, {"measurement": "Cmax", "setting": "[9]", "result": 543, "unit": "ng/mL"}, {"measurement": "Tmax", "setting": "[9]", "result": 1, "unit": "h"}, {"measurement": "AUC(0-t)", "setting": "100 mg, Intermittent Dose Schedule B, 100 mg, Day 1, 7 patients, read-out: AUC0–8 Geometric Mean (%CV)", "result": 1920, "unit": "ng·h/mL"}, {"measurement": "AUC(0-t)", "setting": "100 mg, Intermittent Dose Schedule B, 100 mg, Day 1, 7 patients, read-out: AUC0–24 Geometric Mean (%CV)", "result": 4520, "unit": "ng·h/mL"}, {"measurement": "Cmax", "setting": "[10]", "result": 562, "unit": "ng/mL"}, {"measurement": "Tmax", "setting": "[10]", "result": 2, "unit": "h"}, {"measurement": "AUC(0-t)", "setting": "100 mg, Intermittent Dose Schedule B, 100 mg, Day 8, 6 patients, read-out: AUC0–8 Geometric Mean (%CV)", "result": 2880, "unit": "ng·h/mL"}, {"measurement": "Cmax", "setting": "[11]", "result": 714, "unit": "ng/mL"}, {"measurement": "Tmax", "setting": "[11]", "result": 1.5, "unit": "h"}, {"measurement": "AUC(0-t)", "setting": "100 mg, Intermittent Dose Schedule B, 100 mg, Day 8, n = 4, read-out: AUC0–24 Geometric Mean (%CV)", "result": 6200, "unit": "ng·h/mL"}, {"measurement": "AUC(0-t)", "setting": "120 mg, Continuous Dosing, 120 mg, Day 1, 5 patients, read-out: AUC0–8 Geometric Mean (%CV)", "result": 2990, "unit": "ng·h/mL"}, {"measurement": "AUC(0-t)", "setting": "120 mg, Continuous Dosing, 120 mg, Day 1, 5 patients, read-out: AUC0–24 Geometric Mean (%CV)", "result": 7600, "unit": "ng·h/mL"}, {"measurement": "Cmax", "setting": "[12]", "result": 876, "unit": "ng/mL"}, {"measurement": "Tmax", "setting": "[12]", "result": 2, "unit": "h"}, {"measurement": "AUC(0-t)", "setting": "120 mg, Continuous Dosing, 120 mg, Day 15, 1 patient, read-out: AUC0–8 Geometric Mean (%CV)", "result": 6430, "unit": "ng·h/mL"}, {"measurement": "Cmax", "setting": "[13]", "result": 982, "unit": "ng/mL"}, {"measurement": "Tmax", "setting": "[13]", "result": 8, "unit": "h"}, {"measurement": "AUC(0-t)", "setting": "120 mg, Intermittent Dose Schedule A, 120 mg, Day 8, 3 patients, read-out: AUC0–8 Geometric Mean (%CV)", "result": 3710, "unit": "ng·h/mL"}, {"measurement": "AUC(0-t)", "setting": "120 mg, Intermittent Dose Schedule A, 120 mg, Day 8, 3 patients, read-out: AUC0–24 Geometric Mean (%CV)", "result": 8940, "unit": "ng·h/mL"}, {"measurement": "Cmax", "setting": "[14]", "result": 872, "unit": "ng/mL"}, {"measurement": "Tmax", "setting": "[14]", "result": 1, "unit": "h"}]}]}
